Experimental data: patent US20260257992A1, “AGONISTS OF SMALL HETERODIMER PARTNER FOR CANCER THERAPY” (THE BOARD OF TRUSTEES OF THE UNIVERSITY OF ILLINOIS, priority 2023, published 2026)

Key:
full length NR0B2 = molecular target: T1, full length NR0B2 (Homo sapiens, UniProt Q15466); assay: Thermal shift assay with recombinant NR0B2; assay type: binding; conditions: 1 mM ligand, 6 μM purified NR0B2; apo/unliganded 46.74±0.22
T1 construct: A gene containing a hexa-His-TEV fusion with full length NR0B2 in pET21(a)+ was transformed in E. coli BL21(DE3); hexa-His with TEV site; made in house; host or cells: E. coli BL21(DE3)
T1 sequence (Q15466 1-257): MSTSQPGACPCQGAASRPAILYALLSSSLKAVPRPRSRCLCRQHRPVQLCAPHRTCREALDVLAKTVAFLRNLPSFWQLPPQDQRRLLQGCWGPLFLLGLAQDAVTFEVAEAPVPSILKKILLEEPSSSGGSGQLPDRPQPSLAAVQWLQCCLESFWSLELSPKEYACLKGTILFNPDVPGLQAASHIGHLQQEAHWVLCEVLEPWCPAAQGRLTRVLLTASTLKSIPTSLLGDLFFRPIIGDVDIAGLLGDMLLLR
Protocol: Protein expression, purification, and thermal shift assay. A gene containing a hexa-His-TEV fusion with full length NR0B2 in pET21(a)+ was transformed in E. coli BL21(DE3). A single colony was used to inoculate a 100 mL starter culture of LB broth containing 100 μg/mL ampicillin, which was allowed to grow overnight with shaking at 37° C. This starter culture was used to inoculate flasks containing autoinducing media, which were grown at 37° C. with shaking until they reached an OD^600 of 0.8. Subsequently, the temperature was reduced to 16° C. and cells were allowed to grow for another 24 hours. After harvesting by centrifugation, cells were resuspended at 15 mL/g cell paste in a buffer comprised of 25 mM HEPES pH 8.0, 250 mM NaCl, 20 mM imidazole pH 8.0, 5% glycerol, 0.5 mM TCEP, and Roche EDTA-free protease inhibitor cocktail. Cells were lysed by sonication then centrifuged at 18,000×g for 30 minutes to remove insoluble material. The lysate was loaded onto a gravity flow Ni-NTA column, washed with 5 column volumes (CVs) of resuspension buffer, and protein was eluted using the resuspension buffer supplemented with 500 mM imidazole. Collected protein was dialyzed overnight in the resuspension buffer without imidazole then concentrated and purified on a Superdex 200 HiLoad 200 16/600 size exclusion column. […]

E0771 tumors = assay: Orthotopic syngeneic E0771 mammary tumor growth; assay type: in vivo, mouse
From the text: FIG. 3A-3F. DSHN, a tool small molecule agonist of NR0B2 reduces macrophage/dendritic cell induced Treg expansion and tumor growth in murine models. […] (B) Dendritic cells (left-CD11B^+; CD11C^+) and CD4^+ T cells (right) were isolated from MMTV-PyMT tumors by FACS, and treated with vehicle or DSHN for 3d. The resulting frequency of Treg (CD4^+; CD25^+; FoxP3^+) was quantified by flow cytometry (right graph), (N=3-5/group, t test). […] The percentage of divided CD8+ T cells in the second round was quantified. (D) DSHN increases efficacy of αPDL1 therapy on orthotopic E0771 tumors. An optimal number of E0771 cells were grafted into FoxP3-EGFP mice and allowed to grow until tumors reached 100 mm^3. Mice were euthanized on day 19 (waterfall plot, Fisher's exact test). (E) DSHN increases efficacy of αPDL1 therapy on orthotopic 4T1 tumors. 4T1 cells were orthotopically grafted into mice and allowed to establish for 5d prior to treatment start. Mice were euthanized on day 16 (waterfall plot, Fisher's exact test). (F) DSHN reduces metastatic outgrowth of 4T1 tumors and enhances efficacy of αPDL1 compared to placebo (p) (2-way ANOVA followed by Šidák's multiple comparison test for day 16). 4T1 cells were grafted intravenously, and lung metastatic lesions allowed to establish for 3d before treatment commenced. At the end of the study, lungs were removed and imaged ex vivo, quantified data indicated (N=10, 1-way ANOVA followed by Newman-Keuls multiple comparison test). Representative luciferase images shown to the right. * or different letters denote P<0.05 using indicated statistical test.
FIG. 7A-7I. DSHN-OMe reduces tumor and metastatic growth in murine models, in a myeloid cell-NR0B2 dependent manner. (A) E0771 cells were grafted into control mice (NR0B2^+/+; LysMCre^+) or mice where NR0B2 was knocked out in myeloid immune cells (NR0B2^fl/fl; LysMCre^+). […] (G) EMT6 metastatic lungs were assessed for Ki67 mRNA and (H) FOXP3 mRNA. (I) EMT6 metastatic lungs were assessed for CD8+ cytotoxic T cells (CD8+). […]

| Structure (SMILES) | NR0B2 thermal melt temperature (TM) (full length NR0B2) [°C] | E0771 tumor growth, myeloid NR0B2 knockout (E0771 tumors; NR0B2fl/fl, LysMCre+ mice) | E0771 tumor growth (E0771 tumors; control NR0B2+/+, LysMCre+ mice, daily treatment from day 8) | Growth of established E0771 tumors, combined with αPDL1 (E0771 tumors; DSHN combined with αPDL1) |
| --- | --- | --- | --- | --- |
| CCN(CC)S(=O)(=O)c1cccc2cc(C(=O)OC)c(O)cc12 [DSHN-OMe, Methyl 5-(N,N-diethylsulfamoyl)-3-hydroxy-2-naphthoate] | 46.92±0.17 | no significant impact | significantly reduced E0771 tumor growth |  |
| CCN(CC)S(=O)(=O)c1cccc2cc(C(=O)O)c(O)cc12 [DSHN, reference compound] | 46.34±0.51 |  |  | decreased growth |
